Source: ChEMBL document CHEMBL1909046, “DrugMatrix in vitro pharmacology data”

Key:
[1] = target: T1, Receptor-type tyrosine-protein phosphatase C (Homo sapiens, UniProt P08575); set-up: species or system Escherichia coli;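 note: inhibition of CD45 enzyme activity measured using DiFMUP as substrate; in other assays of this panel Not Active means under 50% inhibition at 10 µM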
T1 sequence (P08575 whole entry): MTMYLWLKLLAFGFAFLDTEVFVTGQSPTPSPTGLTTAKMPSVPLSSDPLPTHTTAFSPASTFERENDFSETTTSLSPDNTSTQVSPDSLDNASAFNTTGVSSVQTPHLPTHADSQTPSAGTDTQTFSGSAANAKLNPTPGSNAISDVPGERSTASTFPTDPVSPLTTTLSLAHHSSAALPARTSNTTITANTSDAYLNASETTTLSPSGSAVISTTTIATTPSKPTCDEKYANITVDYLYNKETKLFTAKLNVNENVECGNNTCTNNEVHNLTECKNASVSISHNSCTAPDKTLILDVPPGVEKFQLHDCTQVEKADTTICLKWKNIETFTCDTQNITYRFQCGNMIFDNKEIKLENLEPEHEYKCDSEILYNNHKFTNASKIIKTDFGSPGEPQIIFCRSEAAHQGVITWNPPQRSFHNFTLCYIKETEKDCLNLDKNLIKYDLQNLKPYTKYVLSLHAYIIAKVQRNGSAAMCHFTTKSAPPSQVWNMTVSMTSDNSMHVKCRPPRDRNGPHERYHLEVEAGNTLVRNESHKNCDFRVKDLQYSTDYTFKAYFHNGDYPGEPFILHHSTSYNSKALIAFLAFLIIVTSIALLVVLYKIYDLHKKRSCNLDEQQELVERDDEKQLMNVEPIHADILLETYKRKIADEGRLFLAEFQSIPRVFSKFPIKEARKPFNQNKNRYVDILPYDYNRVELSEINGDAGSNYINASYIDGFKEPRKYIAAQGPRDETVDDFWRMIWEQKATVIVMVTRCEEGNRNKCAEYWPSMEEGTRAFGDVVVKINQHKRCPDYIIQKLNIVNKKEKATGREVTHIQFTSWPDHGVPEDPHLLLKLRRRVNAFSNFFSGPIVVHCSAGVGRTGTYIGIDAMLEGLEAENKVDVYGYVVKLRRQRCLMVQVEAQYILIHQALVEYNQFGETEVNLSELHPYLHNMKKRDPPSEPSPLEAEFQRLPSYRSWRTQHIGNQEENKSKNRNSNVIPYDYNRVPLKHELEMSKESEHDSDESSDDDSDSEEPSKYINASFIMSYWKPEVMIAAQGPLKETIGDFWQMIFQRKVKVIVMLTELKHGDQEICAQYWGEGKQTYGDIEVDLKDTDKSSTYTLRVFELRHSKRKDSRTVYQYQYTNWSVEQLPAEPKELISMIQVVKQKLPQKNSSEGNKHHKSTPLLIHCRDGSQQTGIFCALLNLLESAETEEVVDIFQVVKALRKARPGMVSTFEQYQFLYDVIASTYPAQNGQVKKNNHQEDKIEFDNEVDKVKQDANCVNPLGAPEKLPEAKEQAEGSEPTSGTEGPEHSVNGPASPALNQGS

B2 bradykinin receptor = target: T2, B2 bradykinin receptor (Homo sapiens, UniProt P30411); type: cell membranes, Membrane; settings: chem-1; note: in other assays of this panel Not Active means under 50% inhibition at 10 µM
T2 sequence (P30411 whole entry): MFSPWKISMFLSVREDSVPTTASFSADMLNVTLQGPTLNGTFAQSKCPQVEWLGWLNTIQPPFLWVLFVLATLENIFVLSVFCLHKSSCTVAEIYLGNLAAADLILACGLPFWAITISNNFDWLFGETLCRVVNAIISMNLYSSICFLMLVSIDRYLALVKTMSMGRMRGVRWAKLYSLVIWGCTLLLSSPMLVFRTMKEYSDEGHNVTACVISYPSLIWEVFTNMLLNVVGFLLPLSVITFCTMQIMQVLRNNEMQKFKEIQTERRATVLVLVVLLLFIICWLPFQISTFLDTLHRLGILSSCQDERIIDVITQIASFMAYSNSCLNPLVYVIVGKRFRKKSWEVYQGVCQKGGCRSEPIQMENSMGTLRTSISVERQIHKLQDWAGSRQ

[2] = target: Protein kinase C alpha type (Homo sapiens, UniProt P17252); type: cell-based; settings: sf9;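 note: inhibition of PKCalpha kinase activity measured in an enzyme assay with histone as the phosphorylation substrate; in other assays of this panel Not Active means under 50% inhibition at 10 µM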
[3] = target: Sodium-dependent dopamine transporter (Homo sapiens, UniProt Q01959); test: DRUGMATRIX: Dopamine Transporter radioligand binding (ligand: [125I] RTI-55); type: cell membranes, CHO-K1, Membrane; settings: cho-k1; Not Active = under 50% inhibition at 10 µM
[4] = target: Delta-type opioid receptor (Homo sapiens, UniProt P41143); type: cell membranes, HEK293, Membrane; settings: hek293; note: in other assays of this panel Not Active means under 50% inhibition at 10 µM
[5] = DRUGMATRIX: GABAA, Flunitrazepam, Central radioligand binding (ligand: [3H] Flunitrazepam); type: cell membranes, Rattus norvegicus, Wistar, Brain, Membrane; settings: Not Active = under 50% inhibition at 10 µM
Histamine H2 receptor = Histamine H2 receptor (Homo sapiens, UniProt P25021); type: cell membranes, CHO-K1, Membrane; note: in other assays of this panel Not Active means under 50% inhibition at 10 µM
Sequence of Histamine H2 receptor (P25021 whole entry): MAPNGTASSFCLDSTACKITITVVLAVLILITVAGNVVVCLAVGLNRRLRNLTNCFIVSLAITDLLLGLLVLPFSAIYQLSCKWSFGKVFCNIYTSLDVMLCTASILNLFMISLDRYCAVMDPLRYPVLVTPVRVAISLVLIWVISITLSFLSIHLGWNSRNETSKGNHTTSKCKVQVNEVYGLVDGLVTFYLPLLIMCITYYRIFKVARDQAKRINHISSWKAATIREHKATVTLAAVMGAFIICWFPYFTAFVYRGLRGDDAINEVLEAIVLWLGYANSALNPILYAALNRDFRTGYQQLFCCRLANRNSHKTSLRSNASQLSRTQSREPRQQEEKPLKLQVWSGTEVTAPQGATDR

Sequence of Delta-type opioid receptor (P41143 whole entry): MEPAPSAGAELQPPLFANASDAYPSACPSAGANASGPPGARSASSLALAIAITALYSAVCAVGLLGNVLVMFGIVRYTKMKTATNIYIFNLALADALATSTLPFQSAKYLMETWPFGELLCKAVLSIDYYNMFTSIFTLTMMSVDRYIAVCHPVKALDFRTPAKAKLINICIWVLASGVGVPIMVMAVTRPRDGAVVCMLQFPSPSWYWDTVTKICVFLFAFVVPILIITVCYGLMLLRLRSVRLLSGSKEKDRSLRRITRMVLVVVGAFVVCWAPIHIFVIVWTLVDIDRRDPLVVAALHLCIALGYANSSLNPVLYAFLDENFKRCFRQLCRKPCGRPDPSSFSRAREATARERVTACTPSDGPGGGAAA
Sequence of Sodium-dependent dopamine transporter (Q01959 whole entry): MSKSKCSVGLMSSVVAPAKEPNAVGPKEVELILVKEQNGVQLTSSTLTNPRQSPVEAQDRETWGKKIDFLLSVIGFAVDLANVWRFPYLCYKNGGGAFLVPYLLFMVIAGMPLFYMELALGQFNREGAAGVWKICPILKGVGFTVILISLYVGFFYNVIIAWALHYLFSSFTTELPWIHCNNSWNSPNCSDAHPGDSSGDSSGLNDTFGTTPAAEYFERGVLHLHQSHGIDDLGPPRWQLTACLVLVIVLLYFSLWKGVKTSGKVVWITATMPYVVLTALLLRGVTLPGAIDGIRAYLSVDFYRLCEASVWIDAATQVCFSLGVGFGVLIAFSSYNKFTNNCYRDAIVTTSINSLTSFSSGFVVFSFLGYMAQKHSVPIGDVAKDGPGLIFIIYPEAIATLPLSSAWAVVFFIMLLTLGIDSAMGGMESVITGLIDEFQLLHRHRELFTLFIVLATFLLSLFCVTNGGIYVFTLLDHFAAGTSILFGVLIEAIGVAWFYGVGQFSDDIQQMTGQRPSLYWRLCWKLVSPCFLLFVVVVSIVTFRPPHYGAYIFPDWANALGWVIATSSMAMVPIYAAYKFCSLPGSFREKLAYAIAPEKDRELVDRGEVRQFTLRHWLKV

Row | Molecule | IC50 [1] | IC50 (B2 bradykinin receptor) | IC50 [2] | IC50 [3] | IC50 [4] | IC50 [5] | Ki [5] | IC50 (Histamine H2 receptor; cho-k1) | Ki [1] | Ki (B2 bradykinin receptor) | Ki [2] | Ki [3] | Ki [4] | Ki (Histamine H2 receptor; cho-k1) | IC50 ([5]; read-out: IC50) [µM] | Ki ([5]; read-out: Ki) [µM] | IC50 (Histamine H2 receptor; read-out: IC50) [µM] | Ki (Histamine H2 receptor; read-out: Ki) [µM]
1 | C[C@]12CCC(=O)C[C@@H]1CC[C@@H]1[C@@H]2CC[C@]2(C)[C@@H](O)CC[C@@H]12 [STANOLONE] | Not Active | Not Active | Not Active | Not Active | Not Active | Not Active | Not Active | Not Active | – | – | – | – | – | – | – | – | – | –
2 | CCN(CC)CCNC(=O)c1cc(Cl)c(N)cc1OC [METOCLOPRAMIDE] | Not Active | Not Active | Not Active | Not Active | Not Active | Not Active | Not Active | Not Active | – | – | – | – | – | – | – | – | – | –
3 | COC(=O)Nc1nc2ccc(C(=O)c3ccccc3)cc2[nH]1 [MEBENDAZOLE] | Not Active | Not Active | Not Active | Not Active | Not Active | Not Active | Not Active | Not Active | – | – | – | – | – | – | – | – | – | –
4 | O=[As][O-].[Na+] [SODIUM ARSENITE] | Not Active | Not Active | Not Active | Not Active | Not Active | Not Active | Not Active | Not Active | – | – | – | – | – | – | – | – | – | –
5 | CS(=O)(=O)c1ccc(C2=C(c3ccccc3)C(=O)OC2)cc1 [ROFECOXIB] | Not Active | Not Active | Not Active | Not Active | Not Active | Not Active | Not Active | Not Active | – | – | – | – | – | – | – | – | – | –
6 | CC1(C)[C@H](C(=O)O)N2C(=O)C[C@H]2S1(=O)=O [SULBACTAM] | Not Active | Not Active | Not Active | Not Active | Not Active | Not Active | Not Active | Not Active | – | – | – | – | – | – | – | – | – | –
7 | CC(N)C12CC3CC(CC(C3)C1)C2 (stereo not given) [RIMANTADINE] | Not Active | Not Active | Not Active | Not Active | Not Active | Not Active | Not Active | Not Active | – | – | – | – | – | – | – | – | – | –
8 | CC[C@H](C)C(=O)O[C@H]1CCC=C2C=C[C@H](C)[C@H](CC[C@@H]3C[C@@H](O)CC(=O)O3)[C@H]21 [MEVASTATIN] | Not Active | Not Active | Not Active | Not Active | Not Active | Not Active | Not Active | Not Active | – | – | – | – | – | – | – | – | – | –
9 | O=C(OC[C@H]1O[C@@H](OC(=O)c2cc(O)c(O)c(OC(=O)c3cc(O)c(O)c(O)c3)c2)[C@H](OC(=O)c2cc(O)c(O)c(OC(=O)c3cc(O)c(O)c(O)c3)c2)[C@@H](OC(=O)c2cc(O)c(O)c(OC(=O)c3cc(O)c(O)c(O)c3)c2)[C@@H]1OC(=O)c1cc(O)c(O)c(OC(=O)c2cc(O)c(O)c(O)c2)c1)c1cc(O)c(O)c(OC(=O)c2cc(O)c(O)c(O)c2)c1 [TANNIC ACID] | Not Active | Not Active | Not Active | Not Active | Not Active | Not Active | Not Active | Not Active | – | – | – | – | – | – | – | – | – | –
10 | LEAD(IV) ACETATE | Not Active | Not Active | Not Active | Not Active | Not Active | Not Active | Not Active | Not Active | Not Active | Not Active | Not Active | Not Active | Not Active | Not Active | – | – | – | –
11 | CO[C@@H]1[C@@H](OC)[C@H](C)[C@@](O)(CC(=O)O)O[C@H]1[C@H](C)[C@H]1O[C@@]2(CC[C@@](C)([C@H]3CC[C@@](C)([C@@H]4O[C@@H]([C@H]5O[C@](C)(O)[C@H](C)C[C@@H]5C)C[C@@H]4O[C@@H]4C[C@H](OC)[C@@H](OC)[C@H](C)O4)O3)O2)C[C@H](O)[C@H]1C.N [MADURAMICIN] | Not Active | Not Active | Not Active | Not Active | Not Active | Not Active | Not Active | Not Active | – | – | – | – | – | – | – | – | – | –
12 | C[N+]1(C)[C@@H]2C[C@@H](OC(=O)[C@H](CO)c3ccccc3)C[C@H]1[C@@H]1O[C@@H]12.[Br-] [METHSCOPOLAMINE BROMIDE] | Not Active | Not Active | Not Active | Not Active | Not Active | Not Active | Not Active | Not Active | – | – | – | – | – | – | – | – | – | –
13 | Cc1nnc(NS(=O)(=O)c2ccc(N)cc2)s1 [SULFAMETHIZOLE] | Not Active | Not Active | Not Active | Not Active | Not Active | Not Active | Not Active | Not Active | – | – | – | – | – | – | – | – | – | –
14 | Cc1ccc(S(=O)(=O)NC(=O)NN2CCCCCC2)cc1 [TOLAZAMIDE] | Not Active | Not Active | Not Active | Not Active | Not Active | Not Active | Not Active | Not Active | – | – | – | – | – | – | – | – | – | –
15 | CCC(C)(C)C(=O)O[C@H]1C[C@@H](C)C=C2C=C[C@H](C)[C@H](CC[C@@H]3C[C@@H](O)CC(=O)O3)[C@H]21 [SIMVASTATIN] | Not Active | Not Active | Not Active | Not Active | Not Active | Not Active | Not Active | Not Active | – | – | – | – | – | – | – | – | – | –
16 | Cc1ccnc(NS(=O)(=O)c2ccc(N)cc2)n1 [SULFAMERAZINE] | Not Active | Not Active | Not Active | Not Active | Not Active | Not Active | Not Active | Not Active | – | – | – | – | – | – | – | – | – | –
17 | OC[C@@H](O)[C@@H](O)[C@H](O)[C@H](O)CO [MANNITOL] | Not Active | Not Active | Not Active | Not Active | Not Active | Not Active | Not Active | Not Active | – | – | – | – | – | – | – | – | – | –
18 | CCN(CC)N=O [N-NITROSODIETHYLAMINE] | Not Active | Not Active | Not Active | Not Active | Not Active | Not Active | Not Active | Not Active | – | – | – | – | – | – | – | – | – | –
19 | CC(=O)O[C@]1(C(C)=O)CC[C@H]2[C@@H]3C[C@H](C)C4=CC(=O)CC[C@]4(C)[C@H]3CC[C@@]21C [MEDROXYPROGESTERONE ACETATE] | Not Active | Not Active | Not Active | Not Active | Not Active | – | – | – | – | – | – | – | – | – | 7.74 | 6.3 | 27.9 | 27.5
20 | CCN1CCCC1CNC(=O)c1cc(S(N)(=O)=O)ccc1OC (stereo not given) [SULPIRIDE] | Not Active | Not Active | Not Active | Not Active | Not Active | Not Active | Not Active | Not Active | – | – | – | – | – | – | – | – | – | –
21 | CC(Cl)(Cl)Cl [TRICHLOROETHANE] | Not Active | Not Active | Not Active | Not Active | Not Active | Not Active | Not Active | Not Active | – | – | – | – | – | – | – | – | – | –
